According to patent US20240400572A1, “COMPOUNDS AND METHODS FOR TREATING CANCERS THAT ARE MGMT DEFICIENT REGARDLESS OF MMR STATUS” (Yale University, priority 2021, published 2024):

Key:
[1] = test system: LN229 MGMT−/MMR+ and MGMT−/MMR− cells; test: IR alkaline comet assay; format: cell-based, human
Description: IR Alkaline Comet Assay. Assay was performed utilizing the CometAssay Kit (Trevigen) according to the alkaline assay protocol, with the addition of slide irradiation post-lysis. Cells were trypsinized, washed with 1×PBS, added to melted Comet LMAgarose (Trevigen), and spread on Trevigen CometSlides at a density of 1000 cells per sample in 50 μL. Lysis solution (Trevigen) with 10% DMSO was added overnight at 4° C. Slides were removed from lysis buffer and irradiated to 0 or 10 Gy using an XRAD 320 X-Ray System (Precision X-Ray) at 320 kV, 12.5 mA, and 50.0 cm SSD, with a 2 mm Al filter and 20 cm×20 cm collimator. Slides were then placed in alkaline buffer (200 mM NaOH, 1 mM EDTA) for 45 min, followed by electrophoresis in 850 mL alkaline buffer for 45 min at 4° C. Slides were washed and stained with SYBR gold (Invitrogen) per Trevigen assay protocol. Slides were imaged on a Cytation 3 imaging reader (BioTek), and comets were analyzed using CometScore 2.0 software (TriTek).
We used a well-established comet assay adapted for ICL detection to determine if ICLs were formed in MGMT− cells treated with KL-50 (4a) (FIG. Z3, A and B). In this assay, cells were sequentially exposed to genotoxins and ionizing radiation, and then analyzed by single cell alkaline gel electrophoresis. Attenuation of the IR-induced comet tail is indicative of ICL formation.

[2] = test system: PD20 cells, FANCD2−/− or +FANCD2; test: Short-term cell viability assay in FANCD2 model; format: cell-based, human; settings: PD20 FANCD2−/− versus +FANCD2
Description: (§1) FIGS. Z4A-Z4I. KL-50 (4a) activates DNA damage response pathways and cycle arrest in MGMT− cells, independent of MMR, and induces sensitivity in cells deficient in ICL or HR repair. (FIGS. Z4A, Z4B, and Z4C) Phospho-SER139-H2AX (γH2AX) (A), 53BP1 (FIG. Z4B), and phospo-SER33-RPA2 (pRPA) (FIG. Z4C) foci formation quantified by % cells with 10 foci in LN229 MGMT+/−, MMR+/− cells treated with 0.1% DMSO control, 20 μM KL-50 (4a), or 20 μM TMZ (1a) for 48 h. Columns, mean; error bars, SD; n≥5 technical replicates. Additional time course data is presented in FIG. ZS6B to D. (FIG. Z4D) Representative foci images of data in (FIG. Z4A) to (FIG. Z4C). (FIG. Z4E) Percentage of cells in G1, S, and G2 cell cycle phases after treatment as in (A) to (C), measured using integrated nuclear (Hoechst) staining intensity. Columns, mean; error bars, SD; n=3 independent analyses. (FIG. Z4F) Change in percent cells with 1 micronuclei from baseline (DMSO control) after treatment as in (FIG. Z4A) to (FIG. Z4C). Columns, mean; error bars, SD; […] technical replicates; **** p<0.0001; ns, not significant. Additional validation is presented in FIG. ZS9, A and B. (FIG. Z4G) Short-term viability assay curves for KL-50 (4a) in PD20 cells, deficient in FANCD2 (FANCD2−/−) or complemented with FANCD2 (+FANCD2). (FIG. Z4H) Short-term viability assay curves for KL-50 (4a) in PEO4 (BRCA2+) and PEO1 (BRCA2−/−) cells pre-treated with 0.01% DMSO control or 10 μM O^6BG (+O^6BG) for 1 h prior to KL-50 (4a) addition. (FIG. Z4I) Short-term viability assay curves for KL-50 (4a) in DLD1 BRCA2+/− and BRCA2−/− cells pre-treated with 0.01% DMSO control or 10 μM O^6BG (+O^6BG) for 1 h prior to KL-50 (4a) addition. For (FIG. Z4G), (FIG. Z4H), and (FIG. Z4I), points, mean; error bars, SD; n=3 technical replicates.
Short-term Cell Viability Assay. Cells were seeded in 96-well plates at 1000 or 2000 cells/well and allowed to adhere at 23° C. for 60 min and then incubated overnight at 37° C. […] Cells were imaged on a Cytation 3 imaging reader (BioTek) and quantified using CellProfiler software.

[3] = test system: PEO4 (BRCA2+) and PEO1 (BRCA2−/−) cells; test: Short-term cell viability assay in PEO1/4 model; format: cell-based, human; settings: for therapeutic index (TI): PEO1/4 model, ratio of IC50 values; for sensitivity of BRCA2-deficient cells (in words): PEO1 versus PEO4, ± 10 μM O^6BG
Description: as §1
(§2) Short-term Cell Viability Assay. Cells were seeded in 96-well plates at 1000 or 2000 cells/well and allowed to adhere at 23° C. for 60 min and then incubated overnight at 37° C. Cells were treated with indicated concentrations of compounds in triplicate for 4-6 days prior to fixation with 3.7% paraformaldehyde and nuclear staining with 1 μg/mL Hoechst 33342 dye. Cells were imaged on a Cytation 3 imaging reader (BioTek) and quantified using CellProfiler software.

[4] = test system: DLD1 BRCA2+/− and BRCA2−/− cells; test: Short-term cell viability assay in DLD1 isogenic model; format: cell-based, human; settings: for sensitivity of BRCA2-deficient cells (in words): DLD1 BRCA2−/− versus BRCA2+/−, ± 10 μM O^6BG; for therapeutic index (TI): ratio of IC50 values in MGMT+/BRCA2+ cells compared to MGMT−/BRCA2− cells
Description: as §1, §2

[5] = test system: linearized pUC19 plasmid DNA; test: Melting temperature assay; format: biochemical; settings: 100 or 500 μM for 3 h
Description: Melting Temperature Assay. Linearized pUC19 DNA (750 ng), prepared as described above, was incubated with the indicated concentration of either MMS or KL-50 (4a) adjusted in a final volume of 18 μL in 100 mM Tris buffer (pH 7.4) for 3 h. Drug stock concentrations were made in DMSO such that each reaction contained a fixed 5% DMSO concentration. Afterwards, 1 μL each of 20× SYBR Green dye (Invitrogen) and 20× ROX reference dye (Invitrogen) was added and melting temperature analysis was run on a StepOnePlus RT PCR System (Applied Biosciences) to generate melting temperature curves.

LN229 MGMT−/MMR− cells = test: Short-term cell viability assay; format: cell-based, human
Description: as §2
Statistical analysis. Statistical analysis was performed using GraphPad Prism software. Data are presented as mean or median±SD or SEM as indicated. For in vitro short-term growth delay experiments, IC50 values were determined from the nonlinear regression equation, [inhibitor] vs normalized response with variable slope. […]
We synthesized the imidazotetrazine 4a (KL-50) and the triazene 4b (KL-85), as vehicles to deliver 2-fluoroethyl diazonium (4c), and a series of related agents to probe structure-activity relationships in tissue culture (FIG. Z1, D and F). […] We evaluated the cytotoxicity of our compounds in short-term cell viability assays against four isogenic LN229 glioblastoma cell lines engineered to be proficient or deficient in MGMT and/or MMR activity, using short hairpin RNAs (shRNAs) targeting MSH2 (referred to as MGMT+/−, MMR+/− cells hereafter; FIG. ZS2A). […]

[6] = test system: genomic DNA of LN229 MGMT−/MMR+ cells; test: Genomic DNA denaturing gel electrophoresis; format: cell-based, human; settings: 200 μM, 24 h
Description: Genomic DNA Denaturing Gel Electrophoresis. Cells were trypsinized, washed with 1×PBS, and stored at −80° C. prior to processing. Genomic DNA was extracted with the DNeasy Blood & Tissue Kit (Qiagen) per kit protocol. A 0.7% agarose gel was prepared in 100 mM NaCl-2 mM EDTA (pH 8) and soaked in 40 mM NaOH-1 mM EDTA running buffer for 2 h. Genomic DNA (400 ng/well) was then loaded in 1× BlueJuice loading buffer (Invitrogen) and subjected to electrophoresis at 2 V/cm for 30 min, followed by 3 V/cm for 2 h. The gel was neutralized in 150 mM NaCl-100 mM Tris (pH 7.4) for 30 min, twice, and then stained with 1× SYBR Gold in 150 mM NaCl-100 mM Tris (pH 7.4) for 90 min. Imaging was performed on a ChemiDoc XRS+ Molecular Imager (Bio-Rad).

[7] = test system: LN229 MGMT+/−, MMR+/− cells; test: Clonogenic cell survival assay; settings: cell status given in the value
Description: Cells were trypsinized, washed, counted, and diluted in a medium containing various concentrations of drug. They were then immediately seeded in six-well plates in triplicate at three-fold dilutions, ranging from 9000 to 37 cells per well. Depending on colony size, these plates were kept in the incubator for 10 to 14 days. After incubation, colonies were washed in phosphate-buffered saline (PBS), stained with crystal violet, counted, and quantified.

[8] = test system: four isogenic LN229 glioblastoma cell lines (MGMT+/−, MMR+/−); format: cell-based; settings: LN229 MGMT+ versus MGMT− cells; listed as 12a
Description: as §2
Statistical analysis. Statistical analysis was performed using GraphPad Prism software. Data are presented as mean or median±SD or SEM as indicated. For in vitro short-term growth delay experiments, IC50 values were determined from the nonlinear regression equation, [inhibitor] vs normalized response with variable slope. For micronuclei assays, comparisons were made with one-way ANOVA and Sidak correction for multiple comparisons. For xenograft growth delay experiments, comparisons were made with Mann-Whitney test (for comparison of 2 groups) or Kruskal-Wallis test with FDR-adjusted p-values with Q set to 5% (for comparison of ≥3 groups). For xenograft survival analysis, Kaplan-Meier analysis was used to evaluate survival rate based on death or removal from study when body weight loss exceeded 20% of initial body weight
We synthesized the imidazotetrazine 4a (KL-50) and the triazene 4b (KL-85), as vehicles to deliver 2-fluoroethyl diazonium (4c), and a series of related agents to probe structure-activity relationships in tissue culture (FIG. Z1, D and F). The 2-fluoropropyl- and 3-fluoropropyl-triazenes (10 and 11, respectively) were prepared by diazotization of 4-aminoimdazole-5-carboxamide, followed by the addition of the respective amine. All other triazenes were prepared according to literature procedures. We evaluated the cytotoxicity of our compounds in short-term cell viability assays against four isogenic LN229 glioblastoma cell lines engineered to be proficient or deficient in MGMT and/or MMR activity, using short hairpin RNAs (shRNAs) targeting MSH2 (referred to as MGMT+/−, MMR+/− cells hereafter; FIG. ZS2A). This approach allowed us to rapidly and rigorously interrogate the relationship between MGMT and MMR status and compound activity.
The compounds 10a through 10l and TMZ were tested in the short-term cell viability assay.

## CO[C@@]12[C@H](COC(N)=O)C3=C(C(=O)C(C)=C(N)C3=O)N1C[C@@H]1N[C@@H]12 [MMC, mitomycin C]
[1]; MGMT−/MMR+ cells, 0.1 μM for 24 h, 10 Gy
  effect on IR-induced comet tail, ICL detection (in words): partial reduction in the IR-induced comet tail
[1]; MGMT−/MMR+ cells, 50 μM for 2 h, 10 Gy
  effect on IR-induced comet tail, ICL detection (in words): completely abolished the IR-induced comet tail
[1]; MGMT−/MMR+ cells, TMZ and KL-50 200 μM, MMC 0.1 or 50 μM
  comet tailing in the absence of IR (in words): did not
[2]
  sensitivity of FANCD2-deficient cells (in words): hypersensitivity to crosslinking agents in FANCD2−/− cells
[3]
  therapeutic index (TI): 7 fold
  sensitivity of BRCA2-deficient cells (in words): hypersensitivity of PEO4 BRCA2−/− cells to crosslinking agents independent of MGMT depletion
[4]
  sensitivity of BRCA2-deficient cells (in words): hypersensitivity of DLD1 BRCA2−/− cells to crosslinking agents independent of MGMT depletion
  therapeutic index (TI): 26 fold

## COS(C)(=O)=O [MMS, Methylmethane sulfonate, reference compound]
[5]
  change in DNA melting temperature (in words): comparable changes in measured DNA melting temperature

## N.N.[Cl][Pt][Cl] [cisplatin]
[2]
  sensitivity of FANCD2-deficient cells (in words): hypersensitivity to crosslinking agents in FANCD2−/− cells
[3]
  therapeutic index (TI): 13 fold
  sensitivity of BRCA2-deficient cells (in words): hypersensitivity of PEO4 BRCA2−/− cells to crosslinking agents independent of MGMT depletion
[4]
  sensitivity of BRCA2-deficient cells (in words): hypersensitivity of DLD1 BRCA2−/− cells to crosslinking agents independent of MGMT depletion
  therapeutic index (TI): 42 fold

## NC(=O)c1nc[nH]c1N=NNCCF [KL-85]
LN229 MGMT−/MMR− cells
  IC50: 27.5 µM
[1]; MGMT−/MMR+ cells, 200 μM for 24 h, 10 Gy
  effect on IR-induced comet tail, ICL detection (in words): Comparable results
[6]
  crosslinked genomic DNA (in words): presence of crosslinked DNA

## O=NN(CCCl)C(=O)NC1CCCCC1 [lomustine]
[7]
  clonogenic survival (in words): effective in MMR− cells but was cytotoxic to MGMT+ cells

## NC(=O)c1ncn2c(=O)n(CCCl)nnc12 [MTZ, mitozolomide]
[8]
  selectivity for MGMT-deficient cells: ~7 fold
[1]; MGMT−/MMR− cells, 200 μM, 2, 8 or 24 h, 0 Gy
  DNA damage in unirradiated samples (in words): induced maximal damage at 2 h, which decreased over time
[1]; MGMT−/MMR− cells, 200 μM, 2, 8 or 24 h, 10 Gy
  rate of ICL formation, DNA mobility after IR (in words): reduced DNA mobility within 2 h
